Counter-ions that a name gives are not always drawn.

One may read the IC50 as the concentration that inhibits the measured activity by half.

HPK1, sequence (Q92918 whole entry): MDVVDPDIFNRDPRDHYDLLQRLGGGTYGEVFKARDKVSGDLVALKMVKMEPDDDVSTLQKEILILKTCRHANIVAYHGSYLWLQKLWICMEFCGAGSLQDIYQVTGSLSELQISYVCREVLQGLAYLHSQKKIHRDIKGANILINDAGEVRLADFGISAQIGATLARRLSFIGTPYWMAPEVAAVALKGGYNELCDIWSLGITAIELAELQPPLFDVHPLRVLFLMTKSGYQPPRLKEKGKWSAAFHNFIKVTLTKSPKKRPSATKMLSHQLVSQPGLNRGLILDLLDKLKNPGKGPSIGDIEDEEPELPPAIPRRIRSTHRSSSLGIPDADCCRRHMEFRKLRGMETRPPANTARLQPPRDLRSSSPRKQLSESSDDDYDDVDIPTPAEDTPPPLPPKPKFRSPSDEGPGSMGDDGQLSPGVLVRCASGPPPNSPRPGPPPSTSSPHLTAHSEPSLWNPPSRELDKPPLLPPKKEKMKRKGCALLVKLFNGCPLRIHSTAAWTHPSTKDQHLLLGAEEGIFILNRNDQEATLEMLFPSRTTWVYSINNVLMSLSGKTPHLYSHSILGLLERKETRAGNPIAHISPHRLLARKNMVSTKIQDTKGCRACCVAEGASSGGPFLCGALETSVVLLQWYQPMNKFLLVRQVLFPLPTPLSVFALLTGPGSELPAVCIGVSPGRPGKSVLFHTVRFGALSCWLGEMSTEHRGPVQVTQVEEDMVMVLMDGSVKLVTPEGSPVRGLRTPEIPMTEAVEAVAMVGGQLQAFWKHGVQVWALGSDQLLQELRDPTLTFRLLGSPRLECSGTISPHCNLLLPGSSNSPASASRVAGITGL

This assay deals with HPK1 (Homo sapiens (Human), UniProt Q92918). Nature of the assay: HPK1 biochemical enzyme assay (microfluidic mobility shift assay). The note with it: 1.5 nM HPK1, ATP 1 mM final, 30 min preincubation, 60 min at RT, Caliper EZ Reader; read-out: HPK1 1000UMATP caliper IC50. The method, boiled down:
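Mobility shift readout of HPK1 activity after a 60 min RT reaction with 1 mM ATP, 1 μM substrate and 5 mM MgCl2. Enzyme/substrate mix was first exposed to compounds for 30 min, using ten-point curves topping at 3 μM final.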
For `CN1CCN(c2ccc(Nc3cnc(-c4c[nH]c5cc(O)ccc45)c4c3C(=O)NC4)nc2)CC1` [I-250], the half-inhibitory concentration (IC50) was in the range of 100 to 1000 nM.

For `Cc1ccn2c(-c3ccc(Nc4ccc([C@@H]5CCOC5)cn4)c4c3CNC4=O)cnc2c1` [I-192, (S)-4-(7-methylimidazo [1,2-a]pyridin-3-yl)-7-((5-(tetrahydro-furan-3-yl)pyridin-2-yl)amino)isoin-dolin-1-one], the IC50 is less than 100 nM.

`CO[C@@H]1CCN(Cc2nc(Nc3ccc(-c4cnc5cc(F)ccn45)c4c3C(=O)NC4)ccc2[C@H]2CCOC2)C1` [I-780, 4-(7-fluoroimidazo [1,2-a]pyridin-3-yl)-7((6-(((R)-3-methoxypyrrol-idin-1-yl)methyl)-5-((R)-tetraliydrofiiran-3-yl)pyridin-2-yl)amino)isoin-dolin-1-one]: the IC50 was less than 100 nM.

Regarding `CN1CCN(c2ccc(Nc3cnc(-c4cn(C)c5ncccc45)c4c3C(=O)NC4)nc2)CC1` [I-14, 7-[[5-(4-methylpiperazin-1-yl)-2-pyridyl]amino]-4-(1-methylpyrrolo [2,3-b]pyridin-3-yl)-2,3-dihydropyrrolo [3,4-c]pyridin-1-one], the IC50 was more than 1000 nM.

For `Cn1ccc2c(-c3ncc(Nc4cccc(N5CC[C@H]6CNC[C@H]65)n4)c4c3CNC4=O)ccnc21` [I-440, 7-((6-((3aS,6aS)-hexahydropy-rrolo[3,4-b]pyrrol-(2H)-yl)pyridin-2-yl)amino)-4-(1-methyl-1H-pyrrolo[2,3-b]pyridin-4-yl)-2,3-dihydro-1H-pyrrolo[3,4-c]pyridin-1-one], the IC50 was less than 100 nM.

Turning to `O=C1NCc2c(-c3cnc4cc(C(F)F)ccn34)ccc(Nc3ccc([C@@]4(O)CCOC4)cn3)c21` [I-610, (S)-4-(7-(difluoromethyl)-imidazo[1,2-a]pyridin-3-yl)-7-((5-(3-hydroxytetra-hydrofuran-3-yl)pyridin-2-yl)amino)isoin-dolin-1-one], the IC50 is less than 100 nM.

`CN1CCN(c2ccc(Nc3ccc(-c4c[nH]c5ncccc45)c4c3C(=O)NC4)nc2)CC1` [I-21, 7-[[5-(4-methylpiperazin-1-yl)-2-pyridyl]amino]-4-(1H-pyrrolo[2,3-b]pyridin-3-yl)-isoindolin-1-one]: the IC50 is less than 100 nM.

`Cn1ccc2c(-c3ncc(Nc4ccc([C@@H]5CCOC5)cn4)c4c3CNC4=O)ccnc21` [I-219, (S)-4-(1-methyl-1H-pyrrolo[2,3-b]pyridin-4-yl)-7-((5-(tetrahydro-furan-3-yl)pyridin-2-yl)amino)-2,3-dihydro-1H-pyrrolo[3,4-c]pyridin-1-one]: the IC50 was less than 100 nM.

“4-imidazo[1,2- a]pyridin-3-yl- 7-[(5-morpholino-2- pyridyl)-amino]-2,3- dihydropyrrolo [3,4-c]pyridin-1- one [I-198]”: the IC50 was in the range of 100 to 1000 nM.

Regarding `COc1cccn2c(-c3ccc(Nc4ccc(N5CCC(O)CC5)cn4)c4c3CNC4=O)cnc12` [I-166, 7-[[5-(4-hydroxy-1-piperidyl)-2-pyridyl]amino]-4-(8-methoxy-imidazo[1,2-a]pyridin-3-yl)isoindolin-1-one], the IC50 is less than 100 nM.

For `CN(C)Cc1cccc(Nc2ccc(-c3cnc4cc(F)ccn34)c3c2C(=O)NC3)n1` [I-699, 7-((6-((dimethylamino)methyl)pyri-din-2-yl)amino)-4-(7-fluoroimidazo [1,2-a]pyridin-3-yl)isoindolin-1-one], the half-inhibitory concentration (IC50) is less than 100 nM.

For the compound `O=C1NCc2c(-c3cnc4cc(F)ccn34)ccc(Nc3ccc(S(=O)(=O)CC4CCC4)cn3)c21` [I-321, 7-((5-((cyclobutyl-methyl)sulfonyl)pyridin-2-yl)amino)-4-(7-fluoroimidazo [1,2-a]pyridin-3-yl)isoindolin-1-one], the 50% inhibitory concentration (IC50) was less than 100 nM.

In the case of `O=C1NCc2c(-c3ccnc4cnccc34)ncc(Nc3ccc(N4CCC(O)CC4)cn3)c21` [I-592, 7-((5-(4-hydroxypiperidin-1-yl)pyridin-2-yl)amino)-4-(1,7-naphthyridin-4-yl)-2,3-dihydro-1H-pyrrolo[3,4-c]pyridin-1-one], the half-inhibitory concentration (IC50) is more than 1000 nM.

Take `Cc1ccn2c(-c3ccc(Nc4ccc(N5CCO[C@H](C(C)(C)O)C5)cn4)c4c3CNC4=O)cnc2c1F` [I-463, 4-(8-fluoro-7-methyl-imidazol [1,2-a]pyridin-3-yl)-7-[[5-[(2S)-2-(1-hydroxy-1-methyl-ethyl)morpholin-4-yl]-2-pyridyl]amino]isoindolin-1-one]: the IC50 was less than 100 nM.

Regarding `CN(Cc1nc(Nc2ccc(-c3cnc4cc(F)ccn34)c3c2C(=O)NC3)ccc1[C@H]1CCOC1)C1COC1` [I-743, (R)-4-(7-fluoroimidazo [1,2-a]pyridin-3-yl)-7-((6-((methyl(oxe-tan-3-yl)amino)meth-yl)-5-(tetrahydrofuran-3-yl)pyridin-2-yl)amino)isoin-dolin-1-one], the IC50 was less than 100 nM.

For `CN(C)C(C)(C)[C@]1(O)CCCN(c2ccc(Nc3ccc(-c4cnc5cc(F)ccn45)c4c3C(=O)NC4)nc2)C1` [I-715, (S)-7-((5-(3-(2-(dimethylami-no)propan-2-yl)-3-hydroxy-piperidin-1-yl)pyridin-2-yl)amino)-4-(7-fluoroimidazo [1,2-a]pyridin-3-yl)isoindolin-1-one], the IC50 was less than 100 nM.

With `Cc1ccc2c(-c3ccc(Nc4ccc(C5CCOC5)c(CN(C)C)n4)c4c3CNC4=O)cnn2c1` (stereo in doubt) [I-731, (S)-7-((6-((dimethylamino)-methyl)-5-(tetrahydrofuran-3-yl)pyridin-2-yl)amino)-4-(6-methylpyra-zolo[1,5-a]pyridin-3-yl)isoindolin-1-one], the IC50 is less than 100 nM.

With `CCc1[nH]c2ccccc2c1-c1ccc(Nc2ccc(N3CCN(C)CC3)cn2)c2c1CNC2=O` [I-34, 4-(2-ethyl-1H-indol-3-yl)-7-[[5-(4-methylpiperazin-1-yl)-2-pyridyl]amino] isoindolin-1-one], the IC50 is less than 100 nM.

In the case of `CNCc1nc(Nc2cnc(-c3ccnc4c3ccn4C)c3c2C(=O)NC3)ccc1[C@@H]1CCOC1` (single isomer, unassigned) [I-813], the IC50 was less than 100 nM.

Consider `O=C1NCc2c(-c3cnc4cc(F)ccn34)ccc(Nc3ccc([C@@H]4CCOC4)c(CN4CCC[C@@H]4CO)n3)c21` [I-826, 4-(7-fluoroimidazo [1,2-a]pyridin-3-yl)-7-((6-(((R)-2-(hydroxymeth-yl)pyrrolidin-1-yl)methyl)-5-((S)-THF-3-yl)pyridin-2-yl)amino)isoin-dolin-1-one], for which the half-inhibitory concentration (IC50) is less than 100 nM.

For `CN1CCN(c2ccc(Nc3ccc(-c4c(F)cnc5c4ccn5C)c4c3C(=O)NC4)nc2)CC1` [I-67, 4-(5-fluoro-1-methyl-pyrrolo[2,3-b]pyridin-4-yl)-7-[[5-(4-methylpiperazin-1-yl)-2-pyridyl]amino] isoindolin-1-one], the IC50 is less than 100 nM.

Consider `CN1CCN(c2ccc(Nc3ccc(-c4cnn5cccnc45)c4c3C(=O)NC4)nc2)CC1` [I-112, 7-[[5-(4-methylpiperazin-1-yl)-2-pyridyl]amino]-4-pyrazolo[1,5-a]pyrimidin-3-yl-isoindolin-1-one], for which the IC50 is less than 100 nM.

`CN(C)C(C)(C)C1CN(c2ccc(Nc3ccc(-c4cnc5cc(F)ccn45)c4c3C(=O)NC4)nc2)CCO1` (stereo in doubt) [I-590, (R)-7-((5-(2-(2-(dimethylami-no)propan-2-yl)morpho-lino)pyridin-2-yl)amino)-4-(7-fluoroimidazo [1,2-a]pyridin-3-yl)isoindolin-1-one]: the concentration for half-maximal inhibition (IC50) is less than 100 nM.

For the compound `CC(C)(O)[C@H]1CCCN(c2ccc(Nc3cnc(-c4cnn5c4CCCC5)c4c3C(=O)NC4)nc2)C1` [I-355, (S)-7-((5-(3-(2-hydroxy-propan-2-yl)piperidin-1-yl)pyridin-2-yl)amino)-4-(4,5,6,7-tetrahydropyra-zolo[1,5-a]pyridin-3-yl)-2,3-dihydro-1H-pyrrolo[3,4-c]pyridin-1-one], the IC50 was less than 100 nM.

`CN1CCN(CC2(O)CCN(c3ccc(Nc4cnc(-c5cnc6ccccn56)c5c4C(=O)NC5)nc3)CC2)CC1` [I-648, 7-((5-(4-hydroxy-4-((4-methylpiperazin-1-yl)methyl)pip-eridin-1-yl)pyridin-2-yl)amino)-4-(imidazo[1,2-a]pyridin-3-yl)-2,3-dihydro-1H-pyrrolo[3,4-c]pyridin-1-one]: the IC50 is less than 100 nM.

As to `Cc1ccc2ncc(-c3ccc(Nc4ccc(N5CCN(C)CC5)cn4)c4c3CNC4=O)n2c1` [I-51, 4-(6-methylimidazo [1,2-a]pyridin-3-yl-)-7-[[5-(4-methylpiperazin-1-yl)-2-pyridyl]amino] isoindolin-1-1-one], the half-inhibitory concentration (IC50) is less than 100 nM.

`Cn1cnc2nccc(-c3ccc(Nc4ccc(N5CCNCC5)cn4)c4c3CNC4=O)c21` [I-114, 4-(1-methylimidazo [4,5-b]pyridin-7-yl)-7-[(5-piperazin-1-yl-2-pyridyl)amino] isoindolin-1-one]: the IC50 was more than 1000 nM.

For `CNC1CCN(c2cccc(Nc3cnc(-c4ccnc5c4ccn5C)c4c3C(=O)NC4)n2)CC1` [I-228, 7-[[6-[4-(methylamino)-1-piperidyl]-2-pyridyl]amino]-4-(1-methylpyrrolo [2,3-b]pyridin-4-yl)-2,3-dihydropyrrolo [3,4-c]pyridin-1-one], the IC50 was 100 to 1000 nM.

On to `CN1CCN(c2cccc(Nc3cnc(-c4cnc5ccccn45)c4c3C(=O)NC4)n2)CC1` [I-451, 4-imidazo[1,2-a]pyridin-3-yl-7-[[6-(4-methylpiperazin-1-yl)-2-pyridyl]amino]-2,3-dihydropyrrolo [3,4-c]pyridin-1-one Bis formate], for which the concentration for half-maximal inhibition (IC50) was less than 100 nM.

As to `COCCN(C)c1ccc(Nc2ccc(-c3cnc4cc(F)ccn34)c3c2C(=O)NC3)nc1` [I-235, 4-(7-fluoroimidazo [1,2-a]pyridin-3-yl)-7-[[5-[2-methoxyethyl (methyl)amino]-2-pyridyl]amino] isoindolin-1-one], the IC50 is less than 100 nM.

As for `CN(C)CCNC(=O)C(C)(C)c1ccc(Nc2ccc(-c3cnc4cc(F)ccn34)c3c2C(=O)NC3)nc1` [I-227, N-[2-(dimethylami-no)ethyl]-2-[6-[[7-(7-fluoroimidazo [1,2-a]pyridin-3-yl)-3-oxo-isoindolin-4-yl]amino]-3-pyridyl]-2-methyl-propanamide], the IC50 is less than 100 nM.

Source of the values: US11021481B2, “Substituted isoindolin-1-ones and 2,3-dihydro-1h-pyrrolo[3,4-c]pyridin-1-ones as HPK1 antagonists” (Nimbus Saturn, Inc., priority 2019, dated 2021).
